Measured values reported in article PMC11110763, “Carltonine-derived compounds for targeted butyrylcholinesterase inhibition” (RSC Medicinal Chemistry, 2024).
≈ marks a conversion by molar mass, not a printed value.

Experiments:
[1] = Cytotoxicity MTT assay, human neuroblastoma cell line; conditions: SH-SY5Y neuroblastoma cells
[2] = target: T1, recombinant BChE (hBChE, E.C. 3.1.1.8) (Homo sapiens, UniProt P06276); test: biochemical; format: biochemical; conditions: for IC50: mean ± SEM of three independent measurements, each in triplicate; for inhibition at 10 µM: tested at 10 μM compound concentration, read-out: % inhibition of hBChE ± SEM
T1 construct: purchased Sigma-Aldrich, Prague, Czech Republic
Description: The activities of hAChE and hBChE were determined using a modified Ellman's method, as described in ref. [56] and [62] against recombinant AChE (hAChE, E.C. 3.1.1.7) and recombinant BChE (hBChE, E.C. 3.1.1.8), both of which were purchased from Sigma-Aldrich, Prague, Czech Republic. […] The other compounds used, including the phosphate buffer solution (PBS, pH = 7.4), 5,5′-dithio-bis(2-nitrobenzoic) acid (Ellman's reagent, DTNB), acetylthiocholine (ATChI), and butyrylthiocholine (BTChI), were commercially available and purchased from Sigma-Aldrich in Prague, Czech Republic. In brief, the corresponding enzyme (8.3 μL), 5 mM DTNB (283 μL), and the sample dilution in dimethyl sulfoxide (DMSO) at various concentrations (8.3 μL) were added to 96-well microplates (BRAND GMBH + CO KG, Wertheim, Germany) and pre-incubated for 5 minutes in the assay medium. The reaction was initiated by adding 10 mM substrate (ATChI or BTChI, 33.3 μL). […] Each measurement was repeated in triplicate. The percentage of inhibition was calculated using the following formula: [drawing 8] where ΔABl represents the increase in absorbance of the blank sample, and ΔASa represents the increase in absorbance of the measured sample. […] Microsoft Excel (Redmond, WA, USA) and GraphPad Prism version 7 for Windows (GraphPad Software, San Diego, CA, USA) were used for the statistical data evaluation.

HepG2 cells = conditions: human, 24 h
Description: (§1) For passaging, the cells were treated with trypsin/EDTA (Sigma-Aldrich, St. Louis, USA) at 37 °C and then harvested. For cytotoxicity evaluation, the cells treated with the studied substances were used, while untreated HepG2 cells served as the control group. The cells were seeded in a 96-well plate at a density of 5 × 10^4 cells per well and incubated for 24 hours. All tested compounds were dissolved in DMSO to prepare 10 mM stock solutions and subsequently diluted to the desired concentration just before the cell treatment (the highest DMSO concentration used was 0.5% v/v). Positive and negative controls were included, as well, and the activity of all the samples was determined in triplicate. Plates were incubated for 24 h in a humidified atmosphere containing 5% CO2 at 37 °C. […] Afterwards, the formazan crystals were dissolved in DMSO, and the absorbance of samples was recorded at 570 nm (BioTek, Synergy Neo2 Multi-Mode Reader NEO2SMALPHAB; BioTek, Winooski, VT, USA). IC50 values were calculated by nonlinear regression from a semi-logarithmic plot of incubation concentration versus percentage of absorbance relative to untreated controls using GraphPad Prism software (version 9; GraphPad Software, Inc., La Jolla, CA, USA).

in vitro = conditions: human, HepG2 hepatocellular carcinoma cells
Description: as §1

[3] = PAMPA assay (BBB penetration); conditions: for Pe ± SEM: PAMPA, PBS pH 7.4, n = 3; for BBB penetration estimation CNS (+/−): class from PAMPA Pe
Description: Furthermore, we experimentally determined the ability of 12 highlighted hBChE inhibitors to pass through the BBB using a parallel artificial membrane permeation assay (PAMPA) as described by Di et al.[65] […] The methodology was validated on a set of compounds (positive and negative controls) recognized for their activity in the CNS (Table 3).
In this study, it has been used as a non-cell-based in vitro assay carried out in a coated 96-well membrane filter. The filter membrane of the donor plate was coated with PBL (polar brain lipid, Avanti, USA) in dodecane (4 μl of 20 mg ml^−1 PBL in dodecane) and the acceptor well was filled with 300 μl of PBS (pH 7.4; VA). The tested compounds were dissolved first in DMSO and subsequently diluted with PBS (pH 7.4) to final concentrations of 50–100 μM in the donor wells. […] About 300 μL of the donor solution was added to the donor wells (VD) and the donor filter plate was carefully put on the acceptor plate so that the coated membrane was “in touch” with both the donor solution and acceptor buffer. In principle, the test compound diffused from the donor well through the lipid membrane (area = 0.28 cm^2) to the acceptor well. The concentration of the drug in both the donor and acceptor wells was assessed after 3, 4, 5, and 6 h of incubation in quadruplicate using the UV plate reader Spark (Tecan Group Ltd, Switzerland) at the maximum absorption wavelength of each compound. Besides that, a solution of theoretical compound concentration, simulating the equilibrium state established if the membrane were ideally permeable, was prepared and assessed as well. The concentration of the compounds in the donor and acceptor wells and equilibrium concentration were calculated from the standard curve and expressed as the permeability (Pe) according the equation: [drawing 10] where [drawing 11]

hBChE = hBChE (Homo sapiens, UniProt P06276); test: Enzyme kinetic analysis of hBChE inhibition; format: biochemical
Description: A kinetic study was performed to estimate the interaction mode of derivative 33 with hBChE. The inhibition kinetics was calculated from rate curves that were determined at several concentrations of the tested compound and substrate. The type of enzyme inhibition and appropriate kinetic parameters (Ki and Ki′) were determined using nonlinear regression analysis. Results for each type of inhibition model (competitive, non-competitive, uncompetitive and mixed) were compared by the sum-of-squares F-test. […].
The kinetic study of hBChE was conducted using the modified Ellman's method mentioned earlier,[62,74,75] with slight variations applied at the collaborating laboratory. Solutions of the corresponding ChE in phosphate buffer (PB) were prepared to achieve a final activity of 0.002 U μL^−1. The solutions of the tested compounds (8.3 μL at varying concentrations) were pre-incubated for 5 minutes in the assay medium. […] The increase in absorbance was measured for 1 minute at 412 nm using the Multimode microplate reader Synergy 2 (BioTek Inc., Winooski, VT, USA). Nunc flat-bottomed polystyrene 96-well microplates (ThermoFisher Scientific, USA) were used for these measurements. To calculate the resulting measured activity (expressed as the percentage of inhibition I), the following formula was applied: [drawing 9] where ΔAi indicates the absorbance change provided by adequate enzyme exposed to the corresponding inhibitor and ΔA0 indicates the absorbance change when a solution of PB was added instead of a solution of the inhibitor. Microsoft Excel (Redmond, WA, USA) and GraphPad Prism version 8.30 for Windows (GraphPad Software, San Diego, CA, USA) were employed for the statistical data analysis. The values of Vmax and Km for the Michaelis–Menten kinetics, as well as the values of Ki (enzyme–inhibitor dissociation constant) and Ki′ (enzyme–substrate–inhibitor dissociation constant), were calculated through nonlinear regression from the substrate velocity curves. Linear regression was used for the calculation of Lineweaver–Burk plots. […]

[4] = Aqueous solubility determination; format: physicochemical; conditions: ultrapure distilled water containing 5% DMSO, 37 °C
Description: Briefly, 200 μl of the aqueous solution of compound 33 at the concentration of 50 μM was analyzed for the UV/vis absorption spectrum using a multimode microplate reader (TECAN Spark®, Tecan Group Ltd., Switzerland) and the wavelength of maximum absorbance was used for further testing of the corresponding compound. Subsequently, six consecutive concentrations were prepared for the compound by serial dilution of 50 μM standard solution and the absorbance of these solutions (200 μl) was measured by a microplate reader. The data were used to calculate the calibration curve by the linear regression method. Finally, the over-saturated solutions of the tested compound were prepared and incubated in an ultrasound water bath at 37 °C for 10 min. Then the solutions were centrifuged at 8000 RPM for 10 min and the UV/vis absorption of the supernatant was measured by a microplate reader. The obtained absorption value was used to calculate the maximum water solubility of the tested compound. In case the absorption value of the supernatant was higher than the calibration curve range, the supernatant was diluted with a 5% DMSO/water solution to match the calibration curve.

[5] = Human liver microsomal (HLM) stability; format: in vitro ADME; conditions: pooled human liver microsomes
Description: Briefly, compounds were dissolved in DMSO to produce stock sample solutions. […] Subsequently, 400 μL of supernatant was transferred to the vial and analyzed by LC-MS. Three types of blank samples were prepared in the same way, with a one-step exception. In the biological blank sample, 5 μL of DMSO was added instead of 5 μL stock solution, in the chemical blanks, 50 μL of water was added instead of HLM, and in the case of the control blank sample, 25 μL of water was added instead of 25 μL of RapidStart System.
A Reverse-phase C18 column Kinetex EVO (Phenomenex, Torrance, CA, USA) was used as a stationary phase, and purified water with 0.1% formic acid (mobile phase A) and LC-MS grade acetonitrile with 0.1% formic acid (mobile phase B) were used as the mobile phases. […] The column temperature was kept constant at 27 °C, the flow of the mobile phase was 0.5 mL min^−1, and the injection volume was 1 μL. […]
The peak areas of the compounds (Acmp) and internal standards (AIS) were detected in positive mode in extracted ion chromatograms from the mass spectrometer data. For the determination of microsomal stability, the Acmp/AIS was calculated as logarithmized. […]

Human plasma stability = format: in vitro ADME; conditions: percentage of the remaining compound after 120 min incubation, 1 μM
Description: Compound 33 was incubated with human pooled plasma (Batch S00G71, Biowest, France). Briefly, compounds were dissolved in DMSO to produce stock sample solutions. 10 μL of stock solution was added to 990 μL of human plasma to initiate the reaction. […] The reactions were stopped by transferring 200 μL of incubate to 200 μL of acetonitrile containing the internal standard (IS; 67) at appropriate time points (0, 15, 30, 60 and 120 min) and centrifuged at 12 000 rpm for 5 min at 4 °C to precipitate the protein. After that, […] of supernatant was transferred to the vial and analyzed by LC-MS.
The HPLC system used in this study was Dionex Ultimate 3000 UHPLC RS consisting of an RS pump, RS column compartment, RS autosampler and diode array detector controlled by Chromeleon (version 7.2.9. build 11323) software (Thermo Fisher Scientific, Germering, Germany) connected to a Q Exactive Plus Orbitrap mass spectrometer with Thermo Xcalibur (version 3.1.66.10.) software (Thermo Fisher Scientific, Bremen, Germany). […]
For the determination of plasma stability, the percentage of the remaining compound was calculated from the ratio between peak area ratios (compound peak area/internal standard peak area) obtained at incubation times 0 and 120 min.

[6] = tested on: recombinant AChE (hAChE, E.C. 3.1.1.7); design: method as in PMID 32455879, PMID 36152726; conditions: template alkaloid, Fig. 1; cited from earlier work

T1 sequence (P06276 29-602): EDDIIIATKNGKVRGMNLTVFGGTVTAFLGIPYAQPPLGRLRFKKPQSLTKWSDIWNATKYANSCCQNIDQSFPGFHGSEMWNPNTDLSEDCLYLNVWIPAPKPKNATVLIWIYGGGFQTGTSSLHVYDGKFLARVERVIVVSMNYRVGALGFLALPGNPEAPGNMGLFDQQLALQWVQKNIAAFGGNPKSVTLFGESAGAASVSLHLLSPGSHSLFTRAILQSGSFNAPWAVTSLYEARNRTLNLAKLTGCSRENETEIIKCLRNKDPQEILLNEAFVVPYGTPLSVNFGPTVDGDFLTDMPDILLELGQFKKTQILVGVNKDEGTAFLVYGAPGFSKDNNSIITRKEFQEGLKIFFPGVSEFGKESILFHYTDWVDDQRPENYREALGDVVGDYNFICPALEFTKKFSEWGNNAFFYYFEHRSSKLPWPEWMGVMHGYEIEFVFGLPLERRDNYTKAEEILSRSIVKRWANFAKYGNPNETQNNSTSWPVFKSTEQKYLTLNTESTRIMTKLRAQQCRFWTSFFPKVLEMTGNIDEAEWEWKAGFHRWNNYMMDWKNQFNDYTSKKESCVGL
Chain of hBChE (P06276 29-602): as above

Q: For `C=CCOc1ccc(CCN(CC=C)Cc2ccc(OC)c(OCc3ccccc3)c2)cc1` [Compound 1, reference compound], which IC50 at 24 h [1] is on record?
A: > 125 µM

Q: What does the source list for `Oc1ccc(CCNCc2cccc(OCc3ccccc3)c2)cc1` [Compound 4, 4-[2-({[3-(Benzyloxy)phenyl]methyl}amino)ethyl]phenol]?
A: IC50 [2]: 0.193 ± 0.055 µM; inhibition at 10 µM [2]: 96 ± 0.8%; Safety index (HepG2 cells): 310; IC50 at 24 h (in vitro): 60 ± 4 µM; Pe ± SEM [3]: 14.0 ± 0.4 ×10^−6 cm s^−1; BBB penetration estimation CNS (+/−) [3]: CNS + (CNS (+) (high BBB permeation predicted): Pe (×10^−6 cm s^−1) > 4.0); IC50 at 24 h [1]: 21 ± 2.4 µM

Q: Which results are given for `COc1ccccc1CCNCc1cccc(OCc2ccccc2)c1` [Compound 5, {[3-(Benzyloxy)phenyl]methyl}[2-(2-methoxyphenyl)ethyl]amine]?
A: IC50 [2]: 0.4 ± 0.1 µM; inhibition at 10 µM [2]: 94 ± 0.4%; Safety index (HepG2 cells): 130; IC50 at 24 h (in vitro): 52 ± 10 µM; Pe ± SEM [3]: 6.2 ± 0.7 ×10^−6 cm s^−1; BBB penetration estimation CNS (+/−) [3]: CNS + (CNS (+) (high BBB permeation predicted): Pe (×10^−6 cm s^−1) > 4.0); IC50 at 24 h [1]: 16 ± 2.8 µM

Q: Which results are given for `CC(CNCc1cccc(OCc2ccccc2)c1)c1ccccc1` (centres unmarked) [Compound 18, {[3-(Benzyloxy)phenyl]methyl}(2-phenylpropyl)amine]?
A: IC50 [2]: 0.188 ± 0.023 µM; inhibition at 10 µM [2]: 96 ± 0.3%; Safety index (HepG2 cells): 290; IC50 at 24 h (in vitro): 55 ± 6.9 µM; Pe ± SEM [3]: 8.1 ± 0.6 ×10^−6 cm s^−1; BBB penetration estimation CNS (+/−) [3]: CNS + (CNS (+) (high BBB permeation predicted): Pe (×10^−6 cm s^−1) > 4.0); IC50 at 24 h [1]: 36 ± 1.4 µM

Q: Which IC50 [2] does the source give for `Oc1ccc(CCNCc2ccc(OCc3ccccc3)cc2)cc1` [Compound 28, 4-[2-({[4-(Benzyloxy)phenyl]methyl}amino)ethyl]phenol] here?
A: 0.171 ± 0.063 µM

Q: What about the inhibition at 10 µM [2] of the same compound?
A: 97 ± 0.3%

Q: What about the Safety index (HepG2 cells) of the same compound?
A: 500

Q: And the IC50 at 24 h (in vitro)?
A: 85 ± 12 µM

Q: And the “Pe ± SEM” value [3]?
A: 10.0 ± 0.5 ×10^−6 cm s^−1

Q: And the “BBB penetration estimation CNS (+/−)” value [3]?
A: CNS + (CNS (+) (high BBB permeation predicted): Pe (×10^−6 cm s^−1) > 4.0)

Q: And the IC50 at 24 h [1]?
A: 13 ± 1.2 µM

Q: With `CCCN(CCc1ccc(O)cc1)Cc1ccc(OCc2ccccc2)cc1` [Compound 33, 4-[2-({[4-(Benzyloxy)phenyl]methyl}(propyl)amino)ethyl]phenol] as the compound, how does the IC50 [2] read?
A: 0.167 ± 0.018 µM

Q: And the inhibition at 10 µM [2]?
A: 95 ± 1.1%

Q: And the Ki (hBChE; enzyme–inhibitor dissociation constant, nonlinear regression)?
A: 0.182 ± 0.028 µM

Q: And the “Ki′” value (hBChE; enzyme–substrate–inhibitor dissociation constant, nonlinear regression)?
A: 1.619 ± 0.315 µM

Q: What about the “type of enzyme inhibition” value (hBChE; sum-of-squares F-test, p < 0.0002, Lineweaver–Burk plot) of the same compound?
A: mixed inhibition pattern

Q: And the solubility at 10 min [4]?
A: 267 µM (≈ 100 µg/mL)

Q: And the microsomal CLint at 0.75 h, 3 µM ([5]; pH 7.4)?
A: 161 µL/min/mg

Q: And the half-life at 0.75 h, 3 µM ([5]; pH 7.4, up to 45 min incubation, read-out: HLM T½)?
A: 8.62 min

Q: What about the Plasma stability (Human plasma stability) of the same compound?
A: 94.5%

Q: What about the Safety index (HepG2 cells) of the same compound?
A: 560

Q: What about the IC50 at 24 h (in vitro) of the same compound?
A: 93 ± 11 µM

Q: What about the “Pe ± SEM” value [3] of the same compound?
A: 11.0 ± 2.2 ×10^−6 cm s^−1

Q: And the “BBB penetration estimation CNS (+/−)” value [3]?
A: CNS + (CNS (+) (high BBB permeation predicted): Pe (×10^−6 cm s^−1) > 4.0)

Q: What about the IC50 at 24 h [1] of the same compound?
A: 38 ± 3.5 µM

Q: For `CN(CCc1ccc(O)cc1)Cc1cc2c(cc1-c1cccc3c1N(C)CC3)OCO2` [carltonine B], which IC50 [6] is on record?
A: > 100 µM
